Active and inactive are the calls of the source.
Experiments:
Type in all cases: functional
SF-295 = assay: Cytotoxicity against human SF295 cells assessed as cell growth at 10 uM after 48 hrs by sulforhodamine B assay
RPMI-8226 = assay: Cytotoxicity against human RPMI8226 cells assessed as cell growth at 10 uM after 48 hrs by sulforhodamine B assay
MOLT-4 = assay: Cytotoxicity against human MOLT4 cells assessed as cell growth at 10 uM after 48 hrs by sulforhodamine B assay
K562 = assay: Cytotoxicity against human K562 cells assessed as cell growth at 10 uM after 48 hrs by sulforhodamine B assay
NCI-H522 = assay: Cytotoxicity against human NCI-H522 cells assessed as cell growth at 10 uM after 48 hrs by sulforhodamine B assay
HT-29 = assay: Cytotoxicity against human HT-29 cells assessed as cell growth at 10 uM after 48 hrs by sulforhodamine B assay
PC-3 = assay: Cytotoxicity against human PC3 cells assessed as cell growth at 10 uM after 48 hrs by sulforhodamine B assay
UACC-62 = assay: Cytotoxicity against human UACC62 cells assessed as cell growth at 10 uM after 48 hrs by sulforhodamine B assay
HL-60(TB) = assay: Cytotoxicity against human HL-60(TB) cells assessed as cell growth at 10 uM after 48 hrs by sulforhodamine B assay
SR = assay: Cytotoxicity against human SR cells assessed as cell growth at 10 uM after 48 hrs by sulforhodamine B assay
EKVX = assay: Cytotoxicity against human EKVX cells assessed as cell growth at 10 uM after 48 hrs by sulforhodamine B assay
SK-MEL-2 = assay: Cytotoxicity against human SK-MEL-2 cells assessed as cell growth at 10 uM after 48 hrs by sulforhodamine B assay
OVCAR-4 = assay: Cytotoxicity against human OVCAR4 cells assessed as cell growth at 10 uM after 48 hrs by sulforhodamine B assay
T47D = assay: Cytotoxicity against human T47D cells assessed as cell growth at 10 uM after 48 hrs by sulforhodamine B assay
A549 = assay: Cytotoxicity against human A549 cells assessed as cell growth at 10 uM after 48 hrs by sulforhodamine B assay
HOP-62 = assay: Cytotoxicity against human HOP62 cells assessed as cell growth at 10 uM after 48 hrs by sulforhodamine B assay
HOP-92 = assay: Cytotoxicity against human HOP92 cells assessed as cell growth at 10 uM after 48 hrs by sulforhodamine B assay
NCI-H322M = assay: Cytotoxicity against human NCI-H322M cells assessed as cell growth at 10 uM after 48 hrs by sulforhodamine B assay
NCI-H460 = assay: Cytotoxicity against human NCI-H460 cells assessed as cell growth at 10 uM after 48 hrs by sulforhodamine B assay
NCI-H226 = assay: Cytotoxicity against human NCI-H226 cells assessed as cell growth at 10 uM after 48 hrs by sulforhodamine B assay
NCI-H23 = assay: Cytotoxicity against human NCI-H23 cells assessed as cell growth at 10 uM after 48 hrs by sulforhodamine B assay
COLO 205 = assay: Cytotoxicity against human COLO205 cells assessed as cell growth at 10 uM after 48 hrs by sulforhodamine B assay
HCC 2998 = assay: Cytotoxicity against human HCC2998 cells assessed as cell growth at 10 uM after 48 hrs by sulforhodamine B assay
HCT-116 = assay: Cytotoxicity against human HCT116 cells assessed as cell growth at 10 uM after 48 hrs by sulforhodamine B assay
HCT-15 = assay: Cytotoxicity against human HCT15 cells assessed as cell growth at 10 uM after 48 hrs by sulforhodamine B assay
KM12 = assay: Cytotoxicity against human KM12 cells assessed as cell growth at 10 uM after 48 hrs by sulforhodamine B assay
SW-620 = assay: Cytotoxicity against human SW620 cells assessed as cell growth at 10 uM after 48 hrs by sulforhodamine B assay
MCF7 = assay: Cytotoxicity against human MCF7 cells assessed as cell growth at 10 uM after 48 hrs by sulforhodamine B assay
MDA-MB-468 = assay: Cytotoxicity against human MDA-MB-468 cells assessed as cell growth at 10 uM after 48 hrs by sulforhodamine B assay
MDA-MB-231 = assay: Cytotoxicity against human MDA-MB-231 cells assessed as cell growth at 10 uM after 48 hrs by sulforhodamine B assay
Hs-578T = assay: Cytotoxicity against human Hs 578T cells assessed as cell growth at 10 uM after 48 hrs by sulforhodamine B assay
BT-549 = assay: Cytotoxicity against human BT549 cells assessed as cell growth at 10 uM after 48 hrs by sulforhodamine B assay
IGROV-1 = assay: Cytotoxicity against human IGROV1 cells assessed as cell growth at 10 uM after 48 hrs by sulforhodamine B assay
OVCAR-3 = assay: Cytotoxicity against human OVCAR-3 cells assessed as cell growth at 10 uM after 48 hrs by sulforhodamine B assay
OVCAR-5 = assay: Cytotoxicity against human OVCAR5 cells assessed as cell growth at 10 uM after 48 hrs by sulforhodamine B assay
OVCAR-8 = assay: Cytotoxicity against human OVCAR8 cells assessed as cell growth at 10 uM after 48 hrs by sulforhodamine B assay
SK-OV-3 = assay: Cytotoxicity against human SKOV3 cells assessed as cell growth at 10 uM after 48 hrs by sulforhodamine B assay
CCRF-CEM = assay: Cytotoxicity against human CCRF-CEM cells assessed as cell growth at 10 uM after 48 hrs by sulforhodamine B assay
786-0 = assay: Cytotoxicity against human 786-0 cells assessed as cell growth at 10 uM after 48 hrs by sulforhodamine B assay
A498 = assay: Cytotoxicity against human A498 cells assessed as cell growth at 10 uM after 48 hrs by sulforhodamine B assay
ACHN = assay: Cytotoxicity against human ACHN cells assessed as cell growth at 10 uM after 48 hrs by sulforhodamine B assay
SN12C = assay: Cytotoxicity against human SN12C cells assessed as cell growth at 10 uM after 48 hrs by sulforhodamine B assay
RXF 393 = assay: Cytotoxicity against human RXF393 cells assessed as cell growth at 10 uM after 48 hrs by sulforhodamine B assay
TK-10 = assay: Cytotoxicity against human TK10 cells assessed as cell growth at 10 uM after 48 hrs by sulforhodamine B assay
UO-31 = assay: Cytotoxicity against human UO31 cells assessed as cell growth at 10 uM after 48 hrs by sulforhodamine B assay
LOX IMVI = assay: Cytotoxicity against human LOXIMVI cells assessed as cell growth at 10 uM after 48 hrs by sulforhodamine B assay
M14 = assay: Cytotoxicity against human M14 cells assessed as cell growth at 10 uM after 48 hrs by sulforhodamine B assay
Malme-3M = assay: Cytotoxicity against human MALME-3M cells assessed as cell growth at 10 uM after 48 hrs by sulforhodamine B assay
MDA-MB-435 = assay: Cytotoxicity against human MDA-MB-435 cells assessed as cell growth at 10 uM after 48 hrs by sulforhodamine B assay
SK-MEL-28 = assay: Cytotoxicity against human SK-MEL-28 cells assessed as cell growth at 10 uM after 48 hrs by sulforhodamine B assay
SK-MEL-5 = assay: Cytotoxicity against human SK-MEL-5 cells assessed as cell growth at 10 uM after 48 hrs by sulforhodamine B assay
UACC-257 = assay: Cytotoxicity against human UACC257 cells assessed as cell growth at 10 uM after 48 hrs by sulforhodamine B assay
DU-145 = assay: Cytotoxicity against human DU145 cells assessed as cell growth at 10 uM after 48 hrs by sulforhodamine B assay
SF-268 = assay: Cytotoxicity against human SF268 cells assessed as cell growth at 10 uM after 48 hrs by sulforhodamine B assay
SF-539 = assay: Cytotoxicity against human SF539 cells assessed as cell growth at 10 uM after 48 hrs by sulforhodamine B assay
SNB-19 = assay: Cytotoxicity against human SNB19 cells assessed as cell growth at 10 uM after 48 hrs by sulforhodamine B assay
SNB-75 = assay: Cytotoxicity against human SNB75 cells assessed as cell growth at 10 uM after 48 hrs by sulforhodamine B assay
U-251 = assay: Cytotoxicity against human U251 cells assessed as cell growth at 10 uM after 48 hrs by sulforhodamine B assay

Measured: Activity

CCCc1cc(=O)oc2cc(OCc3nnc(S)o3)ccc12
inactive: SF-295 | RPMI-8226 | MOLT-4 | K562 | NCI-H522 | HT-29 | PC-3 | UACC-62 | HL-60(TB) | SR | EKVX | SK-MEL-2 | OVCAR-4 | T47D | A549 | HOP-62 | HOP-92 | NCI-H322M | NCI-H460 | NCI-H226 | NCI-H23 | COLO 205 | HCC 2998 | HCT-116 | HCT-15 | KM12 | SW-620 | MCF7 | MDA-MB-468 | MDA-MB-231 | Hs-578T | BT-549 | IGROV-1 | OVCAR-3 | OVCAR-5 | OVCAR-8 | SK-OV-3 | CCRF-CEM | 786-0 | A498 | ACHN | SN12C | RXF 393 | TK-10 | UO-31 | LOX IMVI | M14 | Malme-3M | MDA-MB-435 | SK-MEL-28 | SK-MEL-5 | UACC-257 | DU-145 | SF-268 | SF-539 | SNB-19 | SNB-75 | U-251

CCCc1cc(=O)oc2cc(OCC(=O)n3nc(C)cc3C)ccc12
inactive: SF-295 | RPMI-8226 | MOLT-4 | K562 | NCI-H522 | HT-29 | PC-3 | UACC-62 | HL-60(TB) | SR | EKVX | SK-MEL-2 | OVCAR-4 | T47D | A549 | HOP-62 | HOP-92 | NCI-H322M | NCI-H460 | NCI-H226 | NCI-H23 | COLO 205 | HCC 2998 | HCT-116 | HCT-15 | KM12 | SW-620 | MCF7 | MDA-MB-468 | MDA-MB-231 | Hs-578T | BT-549 | IGROV-1 | OVCAR-3 | OVCAR-5 | OVCAR-8 | SK-OV-3 | CCRF-CEM | 786-0 | A498 | ACHN | SN12C | RXF 393 | TK-10 | UO-31 | LOX IMVI | M14 | Malme-3M | MDA-MB-435 | SK-MEL-28 | SK-MEL-5 | UACC-257 | DU-145 | SF-268 | SF-539 | SNB-19 | SNB-75 | U-251
